One assay deals with Target C. The assay is described as follows: Gene panel canonical junction qPCR assay, Target C CJ mRNA (Table 7). The assay is classed as cell-based, human. Conditions: Homo sapiens, read-out: Target C CJ mRNA decrease IC50. The essentials:
(§1)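 Read-out is the IC50 for loss of canonical-junction mRNA, fitted with a four-parameter logistic curve to percentage response. Response came from RT-qPCR on compound-treated A673 or K562 cell lysates, ΔCt against a housekeeping gene and normalized to DMSO.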

The test system of assay [1] is HTT. The assay is described as follows: Gene panel canonical junction qPCR assay, HTT CJ mRNA (Table 7). The assay is classed as cell-based, human. Conditions: Homo sapiens, read-out: HTT CJ mRNA decrease IC50. The essentials: as §1
On the technique in general: Real-time PCR tracks product formation cycle by cycle.

Another assay deals with SMN2. The assay is described as follows: Gene panel canonical junction qPCR assay, SMN2 CJ mRNA (Table 7). The assay is classed as cell-based. Conditions: Homo sapiens, read-out: SMN2 CJ mRNA decrease IC50. The essentials: as §1
In assay [2] the test system is HTT. The assay is described as follows: RT-qPCR splicing assay, HTT AJ/CJ mRNA. The assay is classed as cell-based, human. Conditions: Homo sapiens, 24 h, A673 or K562 cells; for IC50: decrease in canonical junction mRNA; for AC50: increase in alternative junction mRNA. The method in brief: (§2)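 HTT and MYB canonical (CJ) and alternative-exon (AJ) junction transcripts quantified by one-step RT-qPCR from lysates of A673 or K562 cells treated 24 h with 11-point 3-fold dilutions (top 10 uM, ≤0.25% DMSO). Ct normalized to GAPDH, GUSB or PPIA and DMSO control (2^−ΔΔCt), expressed as % response.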

Assay [3] relates to MYB. The assay is described as follows: RT-qPCR splicing assay, MYB AJ/CJ mRNA. The assay is classed as cell-based. Conditions: Homo sapiens, A673 or K562 cells, 24 hours; for IC50: decrease in canonical junction mRNA; for AC50: increase in alternative junction mRNA. The method in brief:
as §2

Assay [4] deals with MYB. The assay is described as follows: Gene panel canonical junction qPCR assay, MYB CJ mRNA (Table 7). The assay is classed as cell-based. The settings on record: Homo sapiens, read-out: MYB CJ mRNA decrease IC50. The method in brief:
as §1

The record followed here is patent US20240400584A1, “COMPOUNDS AND METHODS FOR MODULATING SPLICING” (REMIX THERAPEUTICS INC., priority 2021, published 2024).

Where only a bound is given, the exact number is not on record here.

The term IC50 denotes the concentration that inhibits the measured activity by half. By AC50 is commonly meant the midpoint of the concentration-response curve, whichever way the signal moves. The low end stands for greater potency, the high end for weaker potency.

As to `CC1(C)CC(Oc2ccc3c(n2)OCc2cc(-n4cccn4)ccc2-3)CCN1` (stereo not shown) [Compound 186], the IC50 is > 10 µM in the assay with Target C; 1 to 10 µM with HTT [1]; 0.1 to 1 µM with SMN2; 1 to 10 µM with HTT [2]; 1 to 10 µM in the assay on MYB [3]; 1 to 10 µM in the assay with MYB [4]. For the same compound, the AC50 in the assay on HTT [2] was 1 to 10 µM; in the assay with MYB [3], > 10 µM.

`c1cnn(-c2ccc3c(c2)COc2nc(OC4CCNCC4)ccc2-3)c1` [Compound 187]: the IC50 was > 10 µM in the assay with Target C; 1 to 10 µM in the assay with HTT [1]; 1 to 10 µM in the assay on SMN2; 1 to 10 µM in the assay on HTT [2]; > 10 µM in the assay on MYB [3]; > 10 µM in the assay with MYB [4]. For the same compound, the AC50 in the assay with HTT [2] and in the assay on MYB [3] was > 10 µM in each case.

As for `c1cnn(-c2ccc3c(c2)COc2nc(O[C@@H]4C[C@H]5CC[C@@H](C4)N5)ccc2-3)c1` [Compound 188], the IC50 with Target C fell in the range of 1 to 10 µM; in the assay on HTT [1], 0.1 to 1 µM; in the assay with SMN2, 0.1 to 1 µM; in the assay with HTT [2] it was 0.1 to 1 µM; with MYB [3] it was 1 to 10 µM; with MYB [4], 1 to 10 µM. In addition, the AC50 was 0.1 to 1 µM in the assay with HTT [2] and 1 to 10 µM in the assay on MYB [3].

Consider `CCN(c1ccc2c(n1)OCc1cc(-n3cccn3)ccc1-2)C1CC(C)(C)NC(C)(C)C1` [Compound 189], for which the IC50 is > 10 µM in the assay on Target C; > 10 µM with HTT [1]; 1 to 10 µM in the assay on SMN2; > 10 µM in the assay with HTT [2]; 1 to 10 µM in the assay with MYB [3]; 1 to 10 µM in the assay on MYB [4]. Further, the AC50 in the assay on HTT [2] was 1 to 10 µM; in the assay with MYB [3], > 10 µM.

On to `c1cnn(-c2ccc3c(c2)COc2nc(N[C@@H]4C[C@H]5CCC[C@@H](C4)N5)ccc2-3)c1` [Compound 190], for which the IC50 in the assay on Target C was 0.1 to 1 µM; with HTT [1], < 0.1 µM; in the assay with SMN2, < 0.1 µM; in the assay on HTT [2] it was < 0.1 µM; in the assay with MYB [3] it was 0.1 to 1 µM; in the assay on MYB [4], 0.1 to 1 µM. The AC50 with HTT [2] and with MYB [3] was 0.1 to 1 µM throughout.

On to `CCN(c1ccc2c(n1)OCc1cc(-n3cccn3)ccc1-2)[C@@H]1C[C@H]2CC[C@@H](C1)N2` [Compound 191], for which the IC50 in the assay with Target C fell in the range of 1 to 10 µM; in the assay with HTT [1], 0.1 to 1 µM; in the assay with SMN2, 0.1 to 1 µM; in the assay on HTT [2] it was 0.1 to 1 µM; with MYB [3], 1 to 10 µM; in the assay on MYB [4], 1 to 10 µM. Further, the AC50 in the assay on HTT [2] is 1 to 10 µM; in the assay on MYB [3] it was > 10 µM.

`c1cnn(-c2ccc3c(c2)COc2nc(N4CCCC5(CCNC5)C4)ccc2-3)c1` (stereo not shown) [Compound 192]: the half-maximal inhibitory concentration (IC50) with Target C, in the assay with HTT [1], in the assay on SMN2, in the assay with HTT [2], with MYB [3] and in the assay on MYB [4] was > 10 µM in each case. The AC50 in the assay on HTT [2] and in the assay on MYB [3] was > 10 µM throughout.

As for `c1cnn(-c2ccc3c(c2)COc2nc(S[C@@H]4C[C@H]5CC[C@@H](C4)N5)ccc2-3)c1` [Compound 193], the IC50 is > 10 µM with Target C; 1 to 10 µM with HTT [1]; > 10 µM in the assay with SMN2; > 10 µM in the assay with HTT [2]; 1 to 10 µM with MYB [3]; 1 to 10 µM in the assay with MYB [4]. The AC50 in the assay on HTT [2] and in the assay on MYB [3] was > 10 µM each time.

`CN1C[C@@H]2[C@H](C1)[C@H]2N(C)c1ccc2c(n1)OCc1cc(-n3cccn3)ccc1-2` [Compound 196]: the IC50 in the assay with Target C, in the assay on HTT [1], with SMN2, in the assay with HTT [2], in the assay with MYB [3] and with MYB [4] was > 10 µM each time. The AC50 with HTT [2] and in the assay on MYB [3] was > 10 µM each time.

On to `CN(C)[C@H]1[C@@H]2CN(c3ccc4c(n3)OCc3cc(-n5cccn5)ccc3-4)C[C@@H]21` [Compound 197], for which the IC50 in the assay with Target C was > 10 µM; with HTT [1], 1 to 10 µM; with SMN2, > 10 µM; with HTT [2], 1 to 10 µM; in the assay with MYB [3], > 10 µM; with MYB [4], > 10 µM. Besides, the AC50 was > 10 µM in the assay on HTT [2] and 1 to 10 µM with MYB [3].

Consider `c1cnn(-c2ccc3c(c2)COc2nc(O[C@@H]4C[C@H]5CCC[C@@H](C4)N5)ccc2-3)c1` [Compound 198], for which the IC50 in the assay on Target C is 1 to 10 µM; in the assay with HTT [1] it was 0.1 to 1 µM; in the assay on SMN2, 0.1 to 1 µM; with HTT [2] it was 0.1 to 1 µM; in the assay with MYB [3], 0.1 to 1 µM; in the assay with MYB [4] it was 0.1 to 1 µM. For the same compound, the AC50 with HTT [2] and in the assay with MYB [3] was 0.1 to 1 µM throughout.

Turning to `[2H]C([2H])([2H])N(c1ccc2c(n1)OCc1cc(-n3cccn3)ccc1-2)C1CC(C)(C)NC(C)(C)C1` [Compound 199], the IC50 with Target C is > 10 µM; with HTT [1], 1 to 10 µM; with SMN2, 1 to 10 µM; with HTT [2], 1 to 10 µM; in the assay on MYB [3], > 10 µM; in the assay with MYB [4], > 10 µM. Besides, the AC50 in the assay on HTT [2] is 1 to 10 µM; with MYB [3], > 10 µM.

Turning to `[2H]C([2H])([2H])N(c1ccc2c(n1)OCc1cc(-n3cccn3)ccc1-2)C1C[C@H]2CCC[C@@H](C1)N2` (stereo partly shown) [Compound 200], the IC50 with Target C was 0.1 to 1 µM; in the assay on HTT [1] it was < 0.1 µM; with SMN2, < 0.1 µM; with HTT [2] it was < 0.1 µM; with MYB [3], 0.1 to 1 µM; in the assay on MYB [4], 0.1 to 1 µM. Besides, the AC50 in the assay with HTT [2] was < 0.1 µM; in the assay on MYB [3], 0.1 to 1 µM.

As to `[2H]C([2H])([2H])N(c1ccc2c(n1)OCc1cc(-n3cccn3)ccc1-2)[C@@H]1C[C@H]2CC[C@@H](C1)N2` [Compound 201], the half-inhibitory concentration (IC50) was 0.1 to 1 µM in the assay with Target C; 0.1 to 1 µM in the assay with HTT [1]; < 0.1 µM in the assay with SMN2; 0.1 to 1 µM in the assay on HTT [2]; 0.1 to 1 µM with MYB [3]; 0.1 to 1 µM with MYB [4]. Moreover, the figures for the AC50 in the assay with HTT [2] and in the assay on MYB [3] were 0.1 to 1 µM and 1 to 10 µM, respectively.

Regarding `c1cnn(-c2ccc3c(c2)COc2nc(N(C4CCNCC4)C4CC4)ccc2-3)c1` [Compound 202], the IC50 is > 10 µM in the assay on Target C; 1 to 10 µM in the assay with HTT [1]; > 10 µM in the assay on SMN2; 1 to 10 µM in the assay on HTT [2]; 1 to 10 µM in the assay on MYB [3]; 1 to 10 µM in the assay with MYB [4]. Further, the AC50 in the assay on HTT [2] and with MYB [3] was > 10 µM throughout.

Consider `CC1(C)CC(N(c2ccc3c(n2)OCc2cc(-n4cccn4)ccc2-3)C2CC2)CC(C)(C)N1` [Compound 204], for which the IC50 in the assay with Target C is > 10 µM; with HTT [1], 1 to 10 µM; in the assay on SMN2, 1 to 10 µM; in the assay on HTT [2] it was 1 to 10 µM; with MYB [3], 1 to 10 µM; in the assay with MYB [4] it was 1 to 10 µM. The AC50 with HTT [2] and with MYB [3] was > 10 µM in each case.

On to `c1cc2c(cc1-c1cn[nH]c1)COc1nc(N3CCC4(CCN4)C3)ccc1-2` (stereo not shown) [Compound 217, 6-[8-(1H-pyrazol-4-yl)-6H-isochromeno[3,4-b]pyridin-3-yl]-1,6-diazaspiro[3.4]octane], for which the IC50 lay within 1 to 10 µM in the assay with Target C; 0.1 to 1 µM in the assay on HTT [1]; 0.1 to 1 µM in the assay on SMN2; 0.1 to 1 µM in the assay on HTT [2]; 1 to 10 µM in the assay on MYB [3]; 1 to 10 µM in the assay with MYB [4]. The AC50 is 1 to 10 µM in the assay on HTT [2] and > 10 µM in the assay on MYB [3].
